According to patent publication US20070275968A1, “Substituted Biphenyl Derivative” (priority 2004, published 2007):

Assays:
[1] = test system: NRK-49F cells; test: Collagen synthesis inhibition test; format: cell-based; details: Rattus norvegicus, 25 ng/mL TGF-β added, cultured about 44 hr, 3H-labeled proline taken into collagen, no TGF-β = 100% inhibition, no test compound = 0% inhibition, read-out: Collagen synthesis inhibiting activity IC50
Protocol: Collagen Synthesis Inhibition Test
Collagen synthesis inhibiting activity was evaluated by the following assay.
NRK-49F cells (Dainippon Pharmaceutical) are seeded into a 96-well plate. After becoming confluent, the medium is changed to a serum-free Dulbecco's modified MEM medium (Invitrogen) containing 5 μg/mL insulin, 5 μg/mL transferin, and 5 ng/mL selenious acid. One day later, the medium is changed to a serum-free Dulbecco's modified MEM medium (80 μl) containing 10 ng/mL IGF-II (Sigma) and 50 μg/mL L-ascorbic acid (Sigma), and a ten times concentration of a test compound (10 μl) is added thereto. Thirty minutes later, 25 ng/mL TGF-β (R&D System: 10 μL) is added to the medium, and the cells are cultured for about 44 hr. Twenty four hours before the termination of the culturing, ^3H-labeled proline (Amersham: 1 μCi) is added so as to be taken into collagen in the cells. When the culturing is terminated, 30% trichloroacetic acid (50 μL) is added to the medium. After leaving for 20 min, proteins are precipitated by centrifugation at 3000 rpm for 10 min. The supernatant is removed, and the residue is twice washed with 200 μL of a washing solution (ethanol:ether=3:1). The precipitate is air-dried, and the washing solution is sufficiently removed. After addition of 60 μL of a collagenase solution (2 mg/mL collagenase VII (Sigma), 50 mM Tris-HCl (pH 7.4), 5 mM CaCl2), the resulting mixture is treated at 37° C. for 2 hr to decompose collagen. Then, 90 μL of 15% trichloroacetic acid and 5% tannic acid are added thereto. The resulting mixture is left for 20 min and then centrifuged at 3000 rpm for 10 min. The supernatant (50 μL) is transferred to LumaPlate (PerkinElmer Lifescience) and is air-dried. Then, the amount of ^3H is measured by a Top Count.

Row | Compound | IC50 [1] [µM] | melting point [°C]
1 | Cc1cccc(-c2[nH]c(C(C)C)nc2-c2ccc(F)c(-c3ccc(OCCN4CCCCC4)cc3)c2)n1 [Example 117, 2-{4-[6-Fluoro-4′-(2-piperidin-1-ylethoxy)-1,1′-biphenyl-3-yl]-2-isopropyl-1H-imidazol-5-yl}-6-methylpyridine] | 1.17 | 
2 | Cc1cccc(-c2n[nH]cc2-c2ccc(F)c(-c3c[nH]c(CC(C)(C)O)n3)c2)n1 [Example 210, 1-(4-{2-Fluoro-5-[3-(6-methylpyridin-2-yl)-1H-pyrazol-4-yl]phenyl}-1H-imidazol-2-yl)-2-methylpropan-2-ol] |  | 136 to 140
3 | COc1ccc(-c2cccc(-c3nc(C(C)C)[nH]c3-c3cccc(C)n3)c2)cc1 [Example 4, 2-[2-Isopropyl-4-(4′-methoxy-1,1′-biphenyl-3-yl)-1H-imidazol-5-yl]-6-methylpyridine] |  | 75 to 77
4 | Cc1cccc(-c2n[nH]cc2-c2ccc(F)c(-c3ccc(N4CCN(C)CC4)nc3)c2)n1 [Example 187, 1-(5-{2-Fluoro-5-[3-(6-methylpyridin-2-yl)-1H-pyrazol-4-yl]phenyl}pyridin-2-yl)-4-methylpiperazine] |  | 86
5 | COc1ccc(-c2cccc(-c3nc(C(C)C)[nH]c3-c3cccc(C)n3)c2)cn1 [Example 13, 5-{3-[2-Isopropyl-5-(6-methylpyridin-2-yl)-1H-imidazol-4-yl]phenyl}-2-methoxypyridine] |  | 72 to 74
6 | Cc1cccc(-c2[nH]c(C(C)C)nc2-c2cccc(-c3ccc(S(=O)(=O)N4CCN(C)CC4)cc3)c2)n1 [Example 41, 1-({3′-[2-Isopropyl-5-(6-methylpyridin-2-yl)-1H-imidazol-4-yl]-1,1′-biphenyl-4-yl}sulfonyl)-4-methylpiperazine] |  | 110 to 116
7 | Cc1cccc(-c2[nH]c(C(C)C)nc2-c2cccc(-c3ccc(S(=O)(=O)N(C)C)cc3)c2)n1 [Example 39, 3′-[2-Isopropyl-5-(6-methylpyridin-2-yl)-1H-imidazol-4-yl]-N,N-dimethyl-1,1′-biphenyl-4-sulfonamide] |  | 93 to 96
8 | Cc1cccc(-c2[nH]c(C(C)C)nc2-c2cccc(-c3ccc4c(c3)CCC[S+]4[O-])c2)n1 (stereo not drawn) [Example 83, 2-{2-Isopropyl-4-[3-(1-oxido-3,4-dihydro-2H-thiochromen-6-yl)phenyl]-1H-imidazol-5-yl}-6-methylpyridine] |  | 136 to 139
9 | Cc1cccc(-c2[nH]c(C(C)C)nc2-c2cccc(-c3ccoc3)c2)n1 [Example 21, 2-{4-[3-(3-Furyl)phenyl]-2-isopropyl-1H-imidazol-5-yl}-6-methylpyridine] |  | 74 to 78
10 | Cc1cccc(-c2n[nH]cc2-c2ccc(F)c(-c3ccc(C(C)(O)C(F)(F)F)cn3)c2)n1 (stereo not drawn) [Example 164, 1,1,1-Trifluoro-2-(6-{2-fluoro-5-[3-(6-methylpyridin-2-yl)-1H-pyrazol-4-yl]phenyl}pyridin-3-yl)propan-2-ol] |  | 197 to 198
11 | CNS(=O)(=O)c1ccc(-c2cccc(-c3nc(C(C)C)[nH]c3-c3cccc(C)n3)c2)cc1 [Example 38, 3′-[2-Isopropyl-5-(6-methylpyridin-2-yl)-1H-imidazol-4-yl]-N-methyl-1,1′-biphenyl-4-sulfonamide] |  | 96 to 100
12 | Cc1cccc(-c2[nH]c(C(C)C)nc2-c2cccc(-c3ccc4c(c3)C(=O)CC[S+]4[O-])c2)n1 (stereo not drawn) [Example 80, 6-{3-[2-Isopropyl-5-(6-methylpyridin-2-yl)-1H-imidazol-4-yl]phenyl}-2,3-dihydro-4H-thiochromen-4-one 1-oxide] |  | 145 to 148
13 | CCC(O)(CC)c1ccc(-c2cc(-c3c[nH]nc3-c3cccc(C)n3)ccc2F)nc1 [Example 174, 3-(6-{2-Fluoro-5-[3-(6-methylpyridin-2-yl)-1H-pyrazol-4-yl]phenyl}pyridin-3-yl)pentan-3-ol] |  | 94 to 95
14 | Cc1cccc(-c2nc(C(C)C)[nH]c2-c2cccc(-c3ccc(C(=O)N4CCS(=O)(=O)CC4)cc3)c2)n1 [Example 57, 4-({3′-[2-Isopropyl-4-(6-methylpyridin-2-yl)-1H-imidazol-5-yl]-1,1′-biphenyl-4-yl}carbonyl)thiomorpholine 1,1-dioxide] |  | 141 to 145
15 | Cc1cccc(-c2[nH]c(C(C)C)nc2-c2cccc(-c3ccc(C(N)=O)cn3)c2)n1 [Example 36, 6-{3-[2-Isopropyl-5-(6-methylpyridin-2-yl)-1H-imidazol-4-yl]phenyl}nicotinamide] |  | 138 to 144
16 | Cc1cccc(-c2nc(C(C)C)[nH]c2-c2cccc(-c3cnn(C)c3)c2)n1 [Example 70, 2-{2-Isopropyl-5-[3-(1-methyl-1H-pyrazol-4-yl)phenyl]-1H-imidazol-4-yl}-6-methylpyridine] |  | 84 to 86
17 | CS(=O)(=O)c1ccc(-c2cc(-c3c[nH]nc3-c3cccc(C4CC4)n3)ccc2F)cc1 [Example 203, 2-Cyclopropyl-6-{4-[6-fluoro-4′-(methylsulfonyl)-1,1′-biphenyl-3-yl]-1H-pyrazol-3-yl}pyridine] |  | 102 to 104
18 | Cc1cccc(-c2n[nH]cc2-c2ccc(F)c(-c3ccc(O)cc3)c2)n1 [Example 197, 2′-Fluoro-5′-[3-(6-methylpyridin-2-yl)-1H-pyrazol-4-yl]-1,1′-biphenyl-4-ol] |  | 72 to 74
19 | Cc1cccc(-c2[nH]c(C(C)C)nc2-c2cccc(-c3ccc(F)cc3F)c2)n1 [Example 9, 2-[4-(2′,4′-Difluoro-1,1′-biphenyl-3-yl)-2-isopropyl-1H-imidazol-5-yl]-6-methylpyridine] |  | 70 to 72
20 | Cc1cccc(-c2n[nH]cc2-c2ccc(F)c(-c3ccc(S(=O)(=O)CCO)cc3)c2)n1 [Example 170, 2-({2′-Fluoro-5′-[3-(6-methylpyridin-2-yl)-1H-pyrazol-4-yl]-1,1′-biphenyl-4-yl}sulfonyl)ethanol] |  | 88 to 90
21 | Cc1cccc(-c2n[nH]cc2-c2ccc(F)c(-c3ccc(S(N)(=O)=O)c(C(F)(F)F)c3)c2)n1 [Example 152, 2′-Fluoro-5′-[3-(6-methylpyridin-2-yl)-1H-pyrazol-4-yl]-3-(trifluoromethyl)-1,1′-biphenyl-4-sulfonamide] |  | 107 to 110

More lines, now with the values ahead:

Row | IC50 [1] [µM] | melting point [°C] | Compound
22 |  | 153 to 155 | Cc1cccc(-c2[nH]c(C(C)C)nc2-c2ccc(F)c(-c3ccc(C(=O)NN4CCOCC4)cc3)c2)n1 [Example 66, N-(Morpholin-4-yl)-4-{2-fluoro-5-[2-isopropyl-5-(6-methylpyridin-2-yl)-1H-imidazol-4-yl]phenyl}benzamide]
23 |  | 113 to 115 | Cc1cccc(-c2[nH]c(C(C)C)nc2-c2ccc(F)c(-c3ccc(S(C)(=O)=O)cc3)c2)n1 [Example 61, 2-{4-[6-Fluoro-4′-(methylsulfonyl)-1,1′-biphenyl-3-yl]-2-isopropyl-1H-imidazol-5-yl}-6-methylpyridine]
24 |  | 84 to 85 | Cc1cccc(-c2nc(C(C)C)[nH]c2-c2ccc(F)c(-c3cnn(C(C)C)c3)c2)n1 [Example 108, 2-{5-[4-Fluoro-3-(1-isopropyl-1H-pyrazol-4-yl)phenyl]-2-isopropyl-1H-imidazol-4-yl}-6-methylpyridine]
25 |  | 115 to 117 | Cc1cccc(-c2[nH]c(C(C)C)nc2-c2cccc(-c3ccc4c(c3)CCCS4)c2)n1 [Example 82, 2-{4-[3-(3,4-Dihydro-2H-thiochromen-6-yl)phenyl]-2-isopropyl-1H-imidazol-5-yl}-6-methylpyridine]
26 |  | 144 to 145 | Cc1cccc(-c2n[nH]cc2-c2ccc(F)c(-c3cn(CCN4CCOCC4)cn3)c2)n1 [Example 185, 4-[2-(4-{2-Fluoro-5-[3-(6-methylpyridin-2-yl)-1H-pyrazol-4-yl]phenyl}-1H-imidazol-1-yl)ethyl]morpholine]
27 |  | 124 | Cc1cccc(-c2n[nH]cc2-c2ccc(F)c(-c3cnn(CCN4CCOCC4)c3)c2)n1 [Example 175, 4-[2-(4-{2-Fluoro-5-[3-(6-methylpyridin-2-yl)-1H-pyrazol-4-yl]phenyl}-1H-pyrazol-1-yl)ethyl]morpholine]
28 |  | 105 to 108 | Cc1cccc(-c2n[nH]cc2-c2ccc(F)c(-c3cc[nH]n3)c2)n1 [Example 205, 2-{4-[4-Fluoro-3-(1H-pyrazol-3-yl)phenyl]-1H-pyrazol-3-yl}-6-methylpyridine]
29 |  | 88 to 92 | Cc1cccc(-c2[nH]c(C(C)C)nc2-c2cccc(-c3ccc(S(=O)(=O)N4CCOCC4)cc3)c2)n1 [Example 40, 4-({3′-[2-Isopropyl-5-(6-methylpyridin-2-yl)-1H-imidazol-4-yl]-1,1′-biphenyl-4-yl}sulfonyl)morpholine]
30 |  | 148 to 151 | Cc1cccc(-c2n[nH]cc2-c2ccc(F)c(-c3ccc(OCCO)cn3)c2)n1 [Example 166, 2-[(6-{2-Fluoro-5-[3-(6-methylpyridin-2-yl)-1H-pyrazol-4-yl]phenyl}pyridin-3-yl)oxy]ethanol]
